Source: patent US11547681B2, “N-acylethanolamide derivatives and uses thereof” (ELIEM THERAPEUTICS, INC., priority 2016, dated 2023)

How the values were obtained:
[1] = Intestinal S9 fraction stability, rat
Method in brief: (§1)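 LC-MS/MS tracked both dosed prodrug and expected drug PEA over 60 min (0, 10, 20, 30, 60 min samples) at 37 °C. Incubations held 1 μM test article in intestinal S9, cofactor-initiated after warm-up, stopped with ice-cold acidified acetonitrile.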

[2] = Intestinal S9 fraction stability, human
Method in brief: as §1

[3] = Intestinal S9 fraction stability, dog
Method in brief: (§2)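 Intestinal S9 incubations run at 37 °C with 1 μM compound, cofactor-initiated, sampled over 60 min. Disappearance is followed by LC-MS/MS, which also monitors formation of PEA from the prodrug.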

[4] = Intestinal S9 fraction stability, mouse
Method in brief: as §2

[5] = control compound, rat intestinal S9 fraction
[6] = control compound, mouse intestinal S9 fraction

SMILES: C[C@]12CC[C@H]3[C@@H](CCC4=CC(=O)CC[C@@]43C)[C@@H]1CC[C@@H]2O [Testosterone, testosterone, reference compound]
- CLin [1, 5]: < 0.0116 ml/min/mg protein
- CLin, calculated value in parentheses [1, 5]: 0.0068 ml/min/mg protein
- microsomal CLint ([1]; male, Sprague-Dawley, rat, s9, CLint (ml/min/mg protein), calculated value in parentheses, control compound, rat intestinal S9 fraction, calculated value beyond duration of experiment): 6.52 µL/min/mg
- microsomal CLint ([1]; male, Sprague-Dawley, rat, s9, CLint (ml/min/mg protein), control compound, rat intestinal S9 fraction): < 11.6 µL/min/mg
- microsomal CLint ([1]; male, Sprague-Dawley, rat, s9, CLint, Control Compound, Rat intestinal S9 fraction): < 11.6 µL/min/mg
- microsomal CLint ([1]; male, Sprague-Dawley, rat, s9, CLint, Rat intestinal S9 fraction, control compound): < 11.6 µL/min/mg
- microsomal CLint ([1]; male, Sprague-Dawley, rat, s9, Clint, control compound, Example 4 control run): 5.97 µL/min/mg
- half-life ([1]; male, Sprague-Dawley, rat, s9, Half-life (min), calculated value in parentheses, control compound, rat intestinal S9 fraction, calculated value beyond duration of experiment): 1.77 h
- half-life ([1]; male, Sprague-Dawley, rat, s9, Half-life (min), control compound, rat intestinal S9 fraction): > 1 h
- half-life ([1]; male, Sprague-Dawley, rat, s9, Half-life, Control Compound, Rat intestinal S9 fraction): > 1 h
- half-life at 1 μM ([1]; male, Sprague-Dawley, rat, s9, Half-life, Rat intestinal S9 fraction): > 1 h
- half-life ([1]; male, Sprague-Dawley, rat, s9, Half-life, calculated value in parentheses, control compound, rat intestinal S9 fraction): 1.7 h
- half-life ([1]; male, Sprague-Dawley, rat, s9, Half-life, control compound, Example 4 control run): 1.93 h
- half-life ([1]; male, Sprague-Dawley, rat, s9, Half-life, control compound, rat intestinal S9 fraction): > 1 h
- microsomal CLint ([2]; both, human, s9, CLint, Control Compound, Human intestinal S9 fraction): 50.9 µL/min/mg
- microsomal CLint ([2]; both, human, s9, CLint, Human intestinal S9 fraction, control compound): 50.9 µL/min/mg
- microsomal CLint ([2]; both, human, s9, Clint, control compound, Example 4 control run): 26.9 µL/min/mg
- half-life ([2]; both, human, s9, Half-life (min), control compound, human intestinal S9 fraction): 0.13 h
- half-life ([2]; both, human, s9, Half-life, control compound, Example 4 control run): 0.433 h
- half-life ([2]; both, human, s9, Half-life, control compound, human intestinal S9 fraction): 0.08 h
- CLin ([2]; control compound, human intestinal S9 fraction): 0.144 ml/min/mg protein
- CLin ([3]; control compound, dog intestinal S9 fraction): <0.0116 ml/min/mg protein
- microsomal CLint ([3]; male, Beagle, dog, s9, CLint (ml/min/mg protein), calculated value in parentheses, control compound, dog intestinal S9 fraction, calculated value beyond duration of experiment): 7.22 µL/min/mg
- microsomal CLint ([3]; male, Beagle, dog, s9, CLint (ml/min/mg protein), control compound, dog intestinal S9 fraction): < 11.6 µL/min/mg
- microsomal CLint ([3]; male, Beagle, dog, s9, CLint, Control Compound, Dog intestinal S9 fraction): < 11.6 µL/min/mg
- microsomal CLint ([3]; male, Beagle, dog, s9, CLint, Dog intestinal S9 fraction, control compound): < 11.6 µL/min/mg
- half-life ([3]; male, Beagle, dog, s9, Half-life (min), calculated value in parentheses, control compound, dog intestinal S9 fraction, calculated value beyond duration of experiment): 1.6 h
- half-life ([3]; male, Beagle, dog, s9, Half-life (min), control compound, dog intestinal S9 fraction): > 1 h
- half-life ([3]; male, Beagle, dog, s9, Half-life, Control Compound, Dog intestinal S9 fraction): > 1 h
- half-life at 1 μM ([3]; male, Beagle, dog, s9, Half-life, Dog intestinal S9 fraction): > 1 h
- half-life ([3]; male, Beagle, dog, s9, Half-life, control compound, dog intestinal S9 fraction): > 1 h
- CLin [4, 6]: < 0.0116 ml/min/mg protein
- CLin, calculated value in parentheses [4, 6]: 0.00767 ml/min/mg protein
- microsomal CLint ([4]; male, CD-1, mouse, s9, CLint (ml/min/mg protein), calculated value in parentheses, control compound, mouse intestinal S9 fraction, calculated value beyond duration of experiment): 9.19 µL/min/mg
- microsomal CLint ([4]; male, CD-1, mouse, s9, CLint (ml/min/mg protein), control compound, mouse intestinal S9 fraction): < 11.6 µL/min/mg
- microsomal CLint ([4]; male, CD-1, mouse, s9, CLint, Control Compound, Mouse intestinal S9 fraction): < 11.6 µL/min/mg
- microsomal CLint ([4]; male, CD-1, mouse, s9, CLint, Mouse intestinal S9 fraction, control compound): < 11.6 µL/min/mg
- half-life ([4]; male, CD-1, mouse, s9, Half-life (min), calculated value in parentheses, control compound, mouse intestinal S9 fraction, calculated value beyond duration of experiment): 1.25 h
- half-life ([4]; male, CD-1, mouse, s9, Half-life (min), control compound, mouse intestinal S9 fraction): > 1 h
- half-life ([4]; male, CD-1, mouse, s9, Half-life, Control Compound, Mouse intestinal S9 fraction): > 1 h
- half-life at 1 μM ([4]; male, CD-1, mouse, s9, Half-life, Mouse intestinal S9 fraction): > 1 h
- half-life ([4]; male, CD-1, mouse, s9, Half-life, calculated value in parentheses, control compound, mouse intestinal S9 fraction): 1.5 h
- half-life ([4]; male, CD-1, mouse, s9, Half-life, control compound, mouse intestinal S9 fraction): > 1 h

SMILES: CCCCCCCCCCCCCCCC(=O)NCCOC(=O)CCC(=O)OCC(COC(=O)CCC)OC(=O)CCC (stereo not drawn) [Compound I-11]
- Concentration (μM) of analyte PEA, 0 min ([1]; male, Sprague-Dawley, rat, 0 min, 1 μM): 0 µM
- Concentration (μM) of analyte PEA, 10 min ([1]; male, Sprague-Dawley, rat, 10 min, 1 μM): 0.13 µM
- Concentration (μM) of analyte PEA, 20 min ([1]; male, Sprague-Dawley, rat, 20 min, 1 μM): 0.24 µM
- Concentration (μM) of analyte PEA, 30 min ([1]; male, Sprague-Dawley, rat, 30 min, 1 μM): 0.35 µM
- Concentration (μM) of analyte PEA, 60 min ([1]; male, Sprague-Dawley, rat, 60 min, 1 μM): 0.38 µM
- % Remaining of Initial (n = 1), 0 min ([1]; male, Sprague-Dawley, rat, s9, 0 h, 1 μM): 100%
- % Remaining of Initial (n = 1), 10 min ([1]; male, Sprague-Dawley, rat, s9, 10 min, 1 μM): 1.4%
- % Remaining of Initial (n = 1), 20 min ([1]; male, Sprague-Dawley, rat, s9, 20 min, 1 μM): <1.0%
- % Remaining of Initial (n = 1), 30 min ([1]; male, Sprague-Dawley, rat, s9, 0.5 h, 1 μM): <1.0%
- % Remaining of Initial (n = 1), 60 min ([1]; male, Sprague-Dawley, rat, s9, 1 h, 1 μM): <1.0%
- microsomal CLint at 1 μM ([1]; male, Sprague-Dawley, rat, s9, CLint (mL/min/mg protein)): 425 µL/min/mg
- half-life at 1 μM ([1]; male, Sprague-Dawley, rat, s9, Half-life (min)): 0.0267 h
- Concentration (μM) of analyte PEA, 0 min ([2]; both, human, 0 min, 1 μM): 0.018 µM
- Concentration (μM) of analyte PEA, 10 min ([2]; both, human, 10 min, 1 μM): 0.13 µM
- Concentration (μM) of analyte PEA, 20 min ([2]; both, human, 20 min, 1 μM): 0.20 µM
- Concentration (μM) of analyte PEA, 30 min ([2]; both, human, 30 min, 1 μM): 0.21 µM
- Concentration (μM) of analyte PEA, 60 min ([2]; both, human, 60 min, 1 μM): 0.18 µM
- % Remaining of Initial (n = 1), 0 min ([2]; both, human, s9, 0 h, 1 μM): 100%
- % Remaining of Initial (n = 1), 10 min ([2]; both, human, s9, 10 min, 1 μM): 4.1%
- % Remaining of Initial (n = 1), 20 min ([2]; both, human, s9, 20 min, 1 μM): 1.2%
- % Remaining of Initial (n = 1), 30 min ([2]; both, human, s9, 0.5 h, 1 μM): <1.0%
- % Remaining of Initial (n = 1), 60 min ([2]; both, human, s9, 1 h, 1 μM): <1.0%
- Concentration (μM) of analyte PEA, 0 min ([3]; male, Beagle, dog, 0 min, 1 μM): 0.032 µM
- Concentration (μM) of analyte PEA, 10 min ([3]; male, Beagle, dog, 10 min, 1 μM): 0.23 µM
- Concentration (μM) of analyte PEA, 20 min ([3]; male, Beagle, dog, 20 min, 1 μM): 0.38 µM
- Concentration (μM) of analyte PEA, 30 min ([3]; male, Beagle, dog, 30 min, 1 μM): 0.74 µM
- Concentration (μM) of analyte PEA, 60 min ([3]; male, Beagle, dog, 60 min, 1 μM): 0.88 µM
- % Remaining of Initial (n = 1), 0 min ([3]; male, Beagle, dog, s9, 0 h, 1 μM): 100%
- % Remaining of Initial (n = 1), 10 min ([3]; male, Beagle, dog, s9, 10 min, 1 μM): 1.8%
- % Remaining of Initial (n = 1), 20 min ([3]; male, Beagle, dog, s9, 20 min, 1 μM): <1.0%
- % Remaining of Initial (n = 1), 30 min ([3]; male, Beagle, dog, s9, 0.5 h, 1 μM): <1.0%
- % Remaining of Initial (n = 1), 60 min ([3]; male, Beagle, dog, s9, 1 h, 1 μM): <1.0%
- Concentration (μM) of analyte PEA, 0 min ([4]; male, CD-1, mouse, 0 min, 1 μM): 0 µM
- Concentration (μM) of analyte PEA, 10 min ([4]; male, CD-1, mouse, 10 min, 1 μM): 0.021 µM
- Concentration (μM) of analyte PEA, 20 min ([4]; male, CD-1, mouse, 20 min, 1 μM): 0.059 µM
- Concentration (μM) of analyte PEA, 30 min ([4]; male, CD-1, mouse, 30 min, 1 μM): 0.12 µM
- Concentration (μM) of analyte PEA, 60 min ([4]; male, CD-1, mouse, 60 min, 1 μM): 0.084 µM
- % Remaining of Initial (n = 1), 0 min ([4]; male, CD-1, mouse, s9, 0 h, 1 μM): 100%
- % Remaining of Initial (n = 1), 10 min ([4]; male, CD-1, mouse, s9, 10 min, 1 μM): <1.0%
- % Remaining of Initial (n = 1), 20 min ([4]; male, CD-1, mouse, s9, 20 min, 1 μM): <1.0%
- % Remaining of Initial (n = 1), 30 min ([4]; male, CD-1, mouse, s9, 0.5 h, 1 μM): <1.0%
- % Remaining of Initial (n = 1), 60 min ([4]; male, CD-1, mouse, s9, 1 h, 1 μM): <1.0%
- microsomal CLint at 1 μM ([4]; male, CD-1, mouse, s9, CLint (mL/min/mg protein)): > 691 µL/min/mg
- half-life at 1 μM ([4]; male, CD-1, mouse, s9, Half-life (min)): < 0.0167 h
